This note sets out measurements from ChEMBL document CHEMBL5614416, “Discovery of novel thiophene[3,2-d]pyrimidine-based tubulin inhibitors with enhanced antitumor efficacy for combined use with anti-pd-l1 immunotherapy in melanoma” (Eur J Med Chem, 2024).

Data set [1] is described as follows: Toxicity in C57 mouse xenografted with mouse B16-F10 cells assessed as body weight change at 7 mg/kg, ip qd for 12 days. It is filed as organism-based. The following applies: in vivo, 288 h, time 12 day.
For data set [2], the system named is B16-F10. The data set is described as follows: Antitumor activity against mouse B16-F10 cells xenografted in C57 mouse at 7 mg/kg, ip qd for 12 days relative to control. It is filed as functional. The following applies: B16-F10, 288 h, time 12 day, read-out: TGI.
In data set [3] the test system is B16-F10. The data set is described as follows: Antitumor activity against mouse B16-F10 cells xenografted in C57 mouse assessed as suppression of tumor growth at 7 mg/kg, ip qd for 12 days. The following applies: time 12.0 day. It is filed as functional, organism-based.
Data set [4] has as its system B16-F10. Nature of the data set: Antiproliferative activity against mouse B16-F10 cells incubated for 48 hrs by MTT assay. In kind it is functional, cell-based. To be noted: B16-F10, 48 h.
A further data set deals with NCI-H23. The data set is described as follows: Antiproliferative activity against human NCI-H23 cells incubated for 48 hrs by MTT assay. To be noted: NCI-H23, 48 h. In kind it is functional, cell-based.
The test system of a further data set is HepG2. The data set is described as follows: Antiproliferative activity against human HepG2 cells incubated for 48 hrs by MTT assay. To be noted: HepG2, 48 h. It is filed as functional, cell-based. In general terms: Tetrazolium dyes change colour on reduction, which living cells bring about.
Another data set deals with MCF7. Nature of the data set: Antiproliferative activity against human MCF7 cells incubated for 48 hrs by MTT assay. It is filed as functional, cell-based. To be noted: MCF7, 48 h.
A further data set concerns HCT-116. The data set is described as follows: Antiproliferative activity against human HCT-116 cells incubated for 48 hrs by MTT assay. In kind it is functional, cell-based. The following applies: HCT-116, 48 h.
Another data set relates to HeLa. Nature of the data set: Antiproliferative activity against human HeLa cells incubated for 48 hrs by MTT assay. In kind it is functional, cell-based.

The source made the active and inactive calls. The calls are words filed in the database; no cut-off is given here.

A word on the IC50: it is the concentration that inhibits the measured activity by half.

As to `Cc1c(COc2cc(OCc3cccc(C#N)c3)c(CNC(C)(C)C(=O)O)cc2Cl)cccc1-c1ccccc1`, the Activity result in [1] is recorded as “Non-Toxic”. The inhibition in vivo at 7 mg/kg with B16-F10 [2] came out at 43.9%. Also, the outcome in the data set with B16-F10 [3] was Active.
Turning to `Cc1nc(N(C)c2ccc(Cl)c(Cl)c2)c2sccc2n1`, the IC50 in the data set on B16-F10 [4], with NCI-H23, in the data set on HepG2, in the data set on MCF7, in the data set on HCT-116 and with HeLa was > 100 nM throughout.
With `COc1ccc(N(C)c2nc(C)nc3ccsc23)cc1[N+](=O)[O-]`, the half-inhibitory concentration (IC50) was 6.25 nM in the data set on B16-F10 [4]; 18.8 nM with NCI-H23; 18.5 nM with HepG2; 4.68 nM with MCF7; 1.56 nM in the data set with HCT-116; 20 nM in the data set on HeLa.
As for `Cc1cccc(N(C)c2nc(C)nc3ccsc23)c1`, the IC50 in the data set with B16-F10 [4], with NCI-H23, in the data set on HepG2, with MCF7, in the data set with HCT-116 and in the data set on HeLa was > 100 nM each time.
As for `Cc1nc(N(C)c2cccc(C(F)(F)F)c2)c2sccc2n1`, the IC50 with B16-F10 [4], in the data set on NCI-H23, in the data set with HepG2, in the data set on MCF7, with HCT-116 and with HeLa was > 100 nM each time.
As for `COc1ccc(N(C)c2nc(C)nc3ccsc23)cc1`, the IC50 with B16-F10 [4] was 30 nM; with NCI-H23 it was 9.37 nM; with HepG2, 18.8 nM; in the data set on MCF7 it was 1.4 nM; in the data set with HCT-116, 3.12 nM; in the data set with HeLa, 18.8 nM.
Regarding `Cc1nc(N(C)c2ccc(C(C)C)cc2)c2sccc2n1`, the IC50 in the data set on B16-F10 [4], in the data set with NCI-H23, in the data set with HepG2, in the data set with MCF7, with HCT-116 and in the data set with HeLa was > 100 nM throughout.
For the molecule `COc1cccc(N(C)c2nc(C)nc3ccsc23)c1`, the IC50 in the data set with B16-F10 [4], in the data set with NCI-H23, in the data set with HepG2, with MCF7, with HCT-116 and in the data set on HeLa was > 100 nM in each case.
With `COc1ccccc1N(C)c1nc(C)nc2ccsc12`, the IC50 in the data set on B16-F10 [4], in the data set on NCI-H23, with HepG2, in the data set on MCF7, with HCT-116 and in the data set on HeLa was > 100 nM throughout.
On to `CN(c1ccc2c(ccn2C)c1)c1ncnc2ccsc12`, for which the IC50 in the data set with B16-F10 [4], in the data set on NCI-H23, in the data set with HepG2, in the data set on MCF7, in the data set with HCT-116 and in the data set on HeLa was > 100 nM each time.
On to `Cc1nc(N(C)c2ccc(OC(C)C)cc2)c2sccc2n1`, for which the IC50 in the data set on B16-F10 [4], in the data set with NCI-H23, with HepG2, in the data set on MCF7, in the data set on HCT-116 and with HeLa was > 100 nM in each case.
As for `COc1cc(OC)cc(N(C)c2nc(C)nc3ccsc23)c1`, the IC50 in the data set on B16-F10 [4], with NCI-H23, with HepG2, in the data set with MCF7, in the data set on HCT-116 and with HeLa was > 100 nM throughout.
`COc1ccc(N(C)c2nc(C)nc3ccsc23)cc1OC`: the IC50 in the data set with B16-F10 [4], in the data set on NCI-H23, in the data set with HepG2, in the data set on MCF7, with HCT-116 and in the data set with HeLa was > 100 nM throughout.
As for `COc1ccc(N(C)c2nc(C)nc3ccsc23)cc1C(F)(F)F`, the IC50 in the data set on B16-F10 [4], with NCI-H23, with HepG2, in the data set on MCF7, in the data set with HCT-116 and in the data set on HeLa was > 100 nM in each case.
For the molecule `Cc1nc(N(C)c2cc(Cl)cc(Cl)c2)c2sccc2n1`, the IC50 in the data set with B16-F10 [4], with NCI-H23, with HepG2, with MCF7, in the data set with HCT-116 and with HeLa was > 100 nM in each case.
As for `Cc1nc(N(C)c2ccc(C(F)(F)F)cc2)c2sccc2n1`, the IC50 in the data set on B16-F10 [4], in the data set on NCI-H23, in the data set on HepG2, in the data set on MCF7, in the data set with HCT-116 and in the data set on HeLa was > 100 nM in each case.
Regarding `Cc1nc(N(C)c2cccc(OC(F)(F)F)c2)c2sccc2n1`, the IC50 in the data set with B16-F10 [4], in the data set on NCI-H23, in the data set with HepG2, in the data set on MCF7, in the data set on HCT-116 and with HeLa was > 100 nM each time.
As for `COc1cc2c(c(OC)c1OC)-c1ccc(OC)c(=O)cc1[C@@H](NC(C)=O)CC2` [COLCHICINE], the 50% inhibitory concentration (IC50) was 18.8 nM in the data set with B16-F10 [4]; 3.1 nM in the data set on NCI-H23; 5 nM in the data set on HepG2; 9.37 nM in the data set on HCT-116; 9.35 nM in the data set on HeLa.
As to `Cc1nc(N(C)c2ccc3ccccc3c2)c2sccc2n1`, the IC50 turned out to be 15.6 nM in the data set with B16-F10 [4]; 18.8 nM in the data set with NCI-H23; 18 nM with HepG2; 20 nM in the data set on MCF7; 0.58 nM with HCT-116; 9 nM in the data set with HeLa.
As for `Cc1nc(N(C)c2ccccc2C)c2sccc2n1`, the half-inhibitory concentration (IC50) in the data set with B16-F10 [4], in the data set with NCI-H23, in the data set on HepG2, in the data set with MCF7, in the data set with HCT-116 and in the data set with HeLa was > 100 nM throughout.
For `COc1cc(N(C)c2nc(C)nc3ccsc23)cc(OC)c1OC`, the IC50 in the data set on B16-F10 [4], in the data set with NCI-H23, in the data set with HepG2, with MCF7, in the data set on HCT-116 and in the data set on HeLa was > 100 nM in each case.
On to `Cc1ccc(N(C)c2nc(C)nc3ccsc23)cc1`, for which the IC50 with B16-F10 [4], with NCI-H23, in the data set on HepG2, in the data set on MCF7, in the data set with HCT-116 and in the data set with HeLa was > 100 nM each time.
As for `Cc1nc(N(C)c2cccc3ccccc23)c2sccc2n1`, the concentration for half-maximal inhibition (IC50) in the data set with B16-F10 [4], in the data set with NCI-H23, with HepG2, with MCF7, with HCT-116 and with HeLa was > 100 nM each time.
